One assay addresses T1, GABAA α4β3δ (Homo sapiens, UniProt P28472+P48169).
T1 construct: expressed in transfected cells; host or cells: HEK293 expressing the Tetracycline repressor protein
As to the kind of experiment: Automated patch clamp electrophysiology (SyncroPatch), PAM mode, GABAA α4β3δ cell line. In kind it is cell-based. The conditions noted are these: for Emax: maximum fold increase in current relative to Allopregnanolone, read-out: GABAA α4β3δ PAM % Emax (to Allo). The source says: (§1) Cellular electrophysiology was used to measure the pharmacology properties of the GABA receptor modulators. The GABAA channels are expressed in stable cell lines described herein. The parental cell line used to express the human GABAA channels is the human embryonic kidney (HEK293) cell line expressing the Tetracycline repressor protein to support inducible expression of the target proteins.
(§2) For the GABAA α4β3δ cell line, the α4 and β3 subunits are under control of tetracycline inducible expression system, while the δ subunit is constitutively expressed. For the GABAA α1β2γ2 cell line, the α1 and β2 subunits are under control of tetracycline inducible expression system, whist the γ2 subunit is constitutively expressed.
(§3) Assessment of the compounds against GABAA α1β2γ2 and GABAA α4β3δ was performed using the SyncroPatch automated platform in positive allosteric modulator (PAM) mode. Six concentrations of 20 nM, 62 nM, 185 nM, 555 nM, 1667 nM and 5000 nM were tested across the plate, with a single concentration of compound per well. A minimum of 3 cells were obtained per each concentration of a compound.
(§4) Automated patch clamp-recordings were performed using the SyncroPatch 384PE. The voltage protocol generation and data collection were performed with PatchController384 V1.6.6 and Data Controller V1.6.0. A steady state voltage pulse at −80 mV was applied during the assay.
(§5) The stacked addition protocol was used, in which γ-aminobutyric acid (GABA) was rapidly applied and then washed off from the cell. To test for positive allosteric modulator activity (PAM), first the agonist GABA EC20 (EC20: 10 μM for GABAA α4β3δ channel and 14 μM GABA for the GABAA α1β2γ2 channel) was applied twice (with wash steps in-between) as a control and to show activation reproducibility, followed by a 1-2 minutes pre-incubation of the tested compound and then re-application of GABA EC20 in the presence of a testing compound. Finally, following a further wash step, maximum GABA (10 mM) was applied.
(§6) An Allopregnanolone concentration response was tested as the control PAM on the compound plates. The fold increase was generated using the following equation, (Icomp/Icontrol)−1, where Icomp is the current amplitude in the presence of the compound and Icontrol is the current amplitude in the presence of GABA EC20 alone. This builds an EC50 concentration-response curve, where 0 represents no PAM activity and >0 represents PAM activity.
(§7) A maximum % Emax for each compound is generated using the following equation, (IMaxComp/IAveMaxAllo)*100, where IMaxcomp is the individual maximum fold increase in current for each compound and IAveMaxAllo is the average maximum fold increase generated in the presence of Allopregnanolone. The resultant % Emax values are then averaged. The compound and Allopregnanolone values were obtained from separate cells which were tested in the same compound run. Two GABAA subtypes were tested against each of the compounds as well as the positive control, Allopregnanolone.
In general terms: The patch-clamp technique gives a direct electrical read-out from membranes.

The next assay has as its target T2, GABAA α1β2γ2 (Homo sapiens, UniProt P14867+P47870).
T2 construct: expressed in transfected cells; host or cells: HEK293 expressing the Tetracycline repressor protein
The assay is described as follows: Automated patch clamp electrophysiology (SyncroPatch), PAM mode, GABAA α1β2γ2 cell line. The conditions noted are these: for Emax: maximum fold increase in current relative to Allopregnanolone, GABA EC20 14 μM, read-out: GABAA α1β2γ2 PAM % Emax (to Allo). It is filed as cell-based.
From the text: as §1, §2, §3, §4, §5, §6, §7

The mark [1] stands for this setting: PAM mode, HEK293 cells expressing human GABAA α4β3δ, GABA EC20 10 μM, read-out: GABAA α4β3δ PAM EC50.
[2] abbreviates: PAM mode, HEK293 cells expressing human GABAA α1β2γ2, GABA EC20 14 μM, read-out: GABAA α1β2γ2 PAM EC50.

Read-outs that look alike come from different tables or passages of the source. Bounds are passed on as bounds.

T1 sequence (P48169 36-554): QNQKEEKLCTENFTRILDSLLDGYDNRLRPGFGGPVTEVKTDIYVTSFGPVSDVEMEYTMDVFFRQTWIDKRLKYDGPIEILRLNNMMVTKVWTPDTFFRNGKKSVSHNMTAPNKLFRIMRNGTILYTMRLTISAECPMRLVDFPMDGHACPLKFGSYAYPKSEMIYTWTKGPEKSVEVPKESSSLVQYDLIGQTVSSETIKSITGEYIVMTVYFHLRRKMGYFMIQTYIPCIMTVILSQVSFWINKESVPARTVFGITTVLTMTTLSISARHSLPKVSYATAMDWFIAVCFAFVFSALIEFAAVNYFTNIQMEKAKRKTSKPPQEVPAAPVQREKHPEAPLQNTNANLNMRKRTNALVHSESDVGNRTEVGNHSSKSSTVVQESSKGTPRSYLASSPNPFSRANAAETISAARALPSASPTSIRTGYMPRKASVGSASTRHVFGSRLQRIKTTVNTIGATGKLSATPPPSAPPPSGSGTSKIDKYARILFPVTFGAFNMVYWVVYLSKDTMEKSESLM
T1 sequence (P28472 26-473): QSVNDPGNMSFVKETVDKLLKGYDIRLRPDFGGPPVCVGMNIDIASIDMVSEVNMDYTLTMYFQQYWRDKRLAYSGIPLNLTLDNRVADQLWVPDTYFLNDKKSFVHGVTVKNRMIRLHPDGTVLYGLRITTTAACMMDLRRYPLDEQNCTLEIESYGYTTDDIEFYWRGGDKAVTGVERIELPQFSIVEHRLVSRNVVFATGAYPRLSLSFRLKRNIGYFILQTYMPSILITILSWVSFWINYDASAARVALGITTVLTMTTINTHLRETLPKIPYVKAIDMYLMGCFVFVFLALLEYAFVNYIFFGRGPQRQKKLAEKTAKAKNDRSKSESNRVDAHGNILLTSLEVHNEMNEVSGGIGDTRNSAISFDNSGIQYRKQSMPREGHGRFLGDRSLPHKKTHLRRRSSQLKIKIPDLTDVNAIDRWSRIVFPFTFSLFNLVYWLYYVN
T1 sequence (O14764 17-452 partner limits assumed): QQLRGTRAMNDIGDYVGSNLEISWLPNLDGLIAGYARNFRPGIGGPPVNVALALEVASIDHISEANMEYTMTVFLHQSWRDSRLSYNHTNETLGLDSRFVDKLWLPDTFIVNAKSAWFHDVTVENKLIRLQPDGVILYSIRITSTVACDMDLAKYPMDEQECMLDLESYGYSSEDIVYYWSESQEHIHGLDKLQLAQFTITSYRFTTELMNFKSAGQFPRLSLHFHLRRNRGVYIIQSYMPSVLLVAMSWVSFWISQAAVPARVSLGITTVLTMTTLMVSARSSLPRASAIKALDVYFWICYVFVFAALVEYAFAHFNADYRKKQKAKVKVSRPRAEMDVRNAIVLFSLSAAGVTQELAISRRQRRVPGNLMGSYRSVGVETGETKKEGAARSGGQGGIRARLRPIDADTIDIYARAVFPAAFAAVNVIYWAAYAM
T2 sequence (P14867 28-456): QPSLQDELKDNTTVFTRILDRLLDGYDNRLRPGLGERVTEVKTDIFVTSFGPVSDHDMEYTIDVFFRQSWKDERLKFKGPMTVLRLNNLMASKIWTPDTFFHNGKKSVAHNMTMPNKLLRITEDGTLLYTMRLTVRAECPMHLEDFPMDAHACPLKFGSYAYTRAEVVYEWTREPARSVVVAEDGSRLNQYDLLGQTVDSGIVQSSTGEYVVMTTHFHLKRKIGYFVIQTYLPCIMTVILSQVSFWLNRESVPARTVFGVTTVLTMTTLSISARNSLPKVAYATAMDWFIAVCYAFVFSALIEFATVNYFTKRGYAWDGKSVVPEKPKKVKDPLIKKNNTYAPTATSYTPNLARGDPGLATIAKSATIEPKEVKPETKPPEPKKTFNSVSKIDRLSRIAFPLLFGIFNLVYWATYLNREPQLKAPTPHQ
T2 sequence (P47870 25-512 limits assumed): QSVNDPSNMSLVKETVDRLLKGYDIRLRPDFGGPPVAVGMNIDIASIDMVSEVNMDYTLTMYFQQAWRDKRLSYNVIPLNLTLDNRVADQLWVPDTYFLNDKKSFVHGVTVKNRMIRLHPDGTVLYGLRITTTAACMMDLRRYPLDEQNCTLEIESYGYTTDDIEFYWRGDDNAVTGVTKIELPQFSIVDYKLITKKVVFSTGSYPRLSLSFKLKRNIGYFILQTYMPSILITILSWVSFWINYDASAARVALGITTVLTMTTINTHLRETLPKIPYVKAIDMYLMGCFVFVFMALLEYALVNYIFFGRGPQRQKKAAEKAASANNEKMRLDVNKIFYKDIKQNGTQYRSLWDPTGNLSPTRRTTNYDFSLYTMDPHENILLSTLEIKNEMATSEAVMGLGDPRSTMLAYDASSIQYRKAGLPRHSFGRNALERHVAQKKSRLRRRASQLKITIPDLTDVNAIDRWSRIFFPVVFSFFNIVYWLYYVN
T2 sequence (P18507 40-475 partner): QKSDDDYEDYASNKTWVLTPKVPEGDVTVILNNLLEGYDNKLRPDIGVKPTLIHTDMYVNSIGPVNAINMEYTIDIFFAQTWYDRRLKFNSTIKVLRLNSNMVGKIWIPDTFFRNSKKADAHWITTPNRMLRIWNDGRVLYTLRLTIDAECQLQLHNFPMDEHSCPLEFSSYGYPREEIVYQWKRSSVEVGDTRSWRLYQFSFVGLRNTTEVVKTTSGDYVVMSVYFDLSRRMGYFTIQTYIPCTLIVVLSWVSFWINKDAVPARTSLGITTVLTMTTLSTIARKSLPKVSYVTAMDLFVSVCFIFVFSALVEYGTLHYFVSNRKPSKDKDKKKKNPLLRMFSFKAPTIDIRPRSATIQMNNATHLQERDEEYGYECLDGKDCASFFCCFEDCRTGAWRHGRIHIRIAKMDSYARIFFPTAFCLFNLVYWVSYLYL

As for `C[C@@]1(O)CC[C@H]2[C@H](CC[C@@H]3[C@@H]2CC[C@]2(C)[C@@H](C4(CC(F)(F)F)COC4)CC[C@@H]32)C1` [Example 20, (3R,5R,8R,9R,10S,13S,14S,17S)-3,13-dimethyl-17-(3-(2,2,2-trifluoroethyl)oxetan-3-yl)-2,4,5,6,7,8,9,10,11,12,14,15,16,17-tetradecahydro-1H-cyclopenta[a]phenanthren-3-ol], the EC50 at GABAA α4β3δ (setting [1]) and at GABAA α1β2γ2 (setting [2]) was less than 500 nM each time. Moreover, the Emax – broadly, the greatest response seen or fitted, relative to the assay's reference – on GABAA α4β3δ (PAM mode, GABA EC20 10 μM) was more than 90%; on GABAA α1β2γ2 (PAM mode) it was more than 90%.
Take `C[C@@]1(O)CC[C@H]2[C@H](CC[C@@H]3[C@@H]2CC[C@]2(C)[C@@H](C4(C5CC5)COC4)CC[C@@H]32)C1` [Example 21, (3R,5R,8R,9R,10S,13S,14S,17S)-17-(3-cyclopropyloxetan-3-yl)-3,13-dimethyl-2,4,5,6,7,8,9,10,11,12,14,15,16,17-tetradecahydro-1H-cyclopenta[a]phenanthren-3-ol]: the figures for the EC50 on GABAA α4β3δ (setting [1]) and on GABAA α1β2γ2 (setting [2]) were more than 1500 nM and 500 to 1000 nM, respectively. In addition, the Emax on GABAA α4β3δ (PAM mode, GABA EC20 10 μM) was more than 90%; at GABAA α1β2γ2 (PAM mode) it was more than 90%.
On to `C#CC1([C@H]2CC[C@H]3[C@@H]4CC[C@@H]5C[C@](C)(O)CC[C@@H]5[C@H]4CC[C@]23C)COC1` [Example 22, (3R,5R,8R,9R,10S,13S,14S,17S)-17-(3-ethynyloxetan-3-yl)-3,13-dimethyl-2,4,5,6,7,8,9,10,11,12,14,15,16,17-tetradecahydro-1H-cyclopenta[a]phenanthren-3-ol], for which the EC50 (usually the midpoint of the concentration-response curve) on GABAA α4β3δ (setting [1]) was more than 1500 nM; on GABAA α1β2γ2 (setting [2]) it was less than 500 nM. The Emax is 50 to 90% at GABAA α4β3δ (PAM mode, GABA EC20 10 μM) and more than 90% at GABAA α1β2γ2 (PAM mode).
For `C[C@@]1(O)CC[C@H]2[C@H](CC[C@@H]3[C@@H]2CC[C@]2(C)[C@@H](C4COC4)CC[C@@H]32)C1` [Example 23, (3R,5R,8R,9R,10S,13S,14S,17R)-17-(oxetan-3-yl)-3,13-dimethyl-2,4,5,6,7,8,9,10,11,12,14,15,16,17-tetradecahydro-1H-cyclopenta[a]phenanthren-3-ol], in that order: less than 500 nM, less than 500 nM, 50 to 90% and 50 to 90%.
For the compound `CC(=O)[C@H]1CC[C@H]2[C@@H]3CC[C@H]4C[C@H](O)CC[C@]4(C)[C@H]3CC[C@]12C` [allopregnanolone, 5α-pregnane-3α-ol-20-one, reference compound], the EC50 on GABAA α4β3δ and at GABAA α1β2γ2 was less than 500 nM in each case. Besides, the Emax at GABAA α4β3δ (PAM mode, GABA EC20 10 μM) was more than 90%; on GABAA α1β2γ2 (PAM mode) it was more than 90%.

These data come from patent US20230118577A1, “NEUROACTIVE STEROIDS AND PHARMACEUTICAL COMPOSITION CONTAINING THE SAME” (Brii Biosciences, Inc., priority 2020, published 2023).
